# PubChem BioAssay (NCI)
#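 Test compounds were applied to cells in 96-well plates for 48 hours at 5 doses. The concentration for full growth arrest is given as TGI.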
# Columns and labels:
# Assay in all cases: growth of human tumour cells (NCI), 48 h
# 786-0 renal = test system: 786-0 renal
# A498 renal = test system: A498 renal
# A549 NSCLC = test system: A549 NSCLC
# ACHN renal = test system: ACHN renal
# BT-549 breast = test system: BT-549 breast
# CAKI-1 renal = test system: CAKI-1 renal
# CCRF-CEM leukemia = test system: CCRF-CEM leukemia
# DU-145 prostate = test system: DU-145 prostate
# EKVX NSCLC = test system: EKVX NSCLC
# HCT-116 colon = test system: HCT-116 colon
# HCT-15 colon = test system: HCT-15 colon
# HL-60(TB) leukemia = test system: HL-60(TB) leukemia
# HOP-62 NSCLC = test system: HOP-62 NSCLC
# HOP-92 NSCLC = test system: HOP-92 NSCLC
# HS 578T breast = test system: HS 578T breast
# HT29 colon = test system: HT29 colon
# IGROV1 ovarian = test system: IGROV1 ovarian
# K-562 leukemia = test system: K-562 leukemia
# KM12 colon = test system: KM12 colon
# LOX IMVI melanoma = test system: LOX IMVI melanoma
# M14 melanoma = test system: M14 melanoma
# MALME-3M melanoma = test system: MALME-3M melanoma
# MCF7 breast = test system: MCF7 breast
# MDA-MB-231 breast = test system: MDA-MB-231 breast
# MDA-MB-435 = test system: MDA-MB-435
# MDA-N = test system: MDA-N
# MOLT-4 leukemia = test system: MOLT-4 leukemia
# NCI-H23 lung = test system: NCI-H23 lung
# NCI-H460 lung = test system: NCI-H460 lung
# NCI-H522 lung = test system: NCI-H522 lung
# NCI/ADR-RES ovarian = test system: NCI/ADR-RES ovarian
# OVCAR-3 ovarian = test system: OVCAR-3 ovarian
# OVCAR-4 ovarian = test system: OVCAR-4 ovarian
# OVCAR-5 ovarian = test system: OVCAR-5 ovarian
# OVCAR-8 ovarian = test system: OVCAR-8 ovarian
# PC-3 prostate = test system: PC-3 prostate
# RXF 393 renal = test system: RXF 393 renal
# SF-268 CNS = test system: SF-268 CNS
# SF-295 CNS = test system: SF-295 CNS
# SK-MEL-2 melanoma = test system: SK-MEL-2 melanoma
# SK-MEL-28 melanoma = test system: SK-MEL-28 melanoma
# SK-OV-3 ovarian = test system: SK-OV-3 ovarian
# SN12C renal = test system: SN12C renal
# SNB-19 CNS = test system: SNB-19 CNS
# SNB-75 CNS = test system: SNB-75 CNS
# SR leukemia = test system: SR leukemia
# SW-620 colon = test system: SW-620 colon
# T-47D breast = test system: T-47D breast
# TK-10 renal = test system: TK-10 renal
# U251 CNS = test system: U251 CNS
# UACC-257 melanoma = test system: UACC-257 melanoma
# UACC-62 melanoma = test system: UACC-62 melanoma
# UO-31 renal = test system: UO-31 renal
smiles,measurement,setting,value
COc1ccc(N2C(=O)C3ON(Cc4ccc(CC(N)=O)cc4)C(c4c5ccccc5c(C)c5ccccc45)C3C2=O)cc1 (stereo not drawn),TGI,786-0 renal,> 100 µM
same,TGI,A498 renal,> 100 µM
same,TGI,A549 NSCLC,> 100 µM
same,TGI,ACHN renal,77.9 µM
same,TGI,BT-549 breast,> 100 µM
same,TGI,CAKI-1 renal,> 100 µM
same,TGI,CCRF-CEM leukemia,> 100 µM
same,TGI,DU-145 prostate,78 µM
same,TGI,EKVX NSCLC,54.9 µM
same,TGI,HCT-116 colon,56.9 µM
same,TGI,HCT-15 colon,74.9 µM
same,TGI,HL-60(TB) leukemia,51.2 µM
same,TGI,HOP-62 NSCLC,> 100 µM
same,TGI,HOP-92 NSCLC,> 100 µM
same,TGI,HS 578T breast,> 100 µM
same,TGI,HT29 colon,35 µM
same,TGI,IGROV1 ovarian,> 100 µM
same,TGI,K-562 leukemia,38 µM
same,TGI,KM12 colon,> 100 µM
same,TGI,LOX IMVI melanoma,> 100 µM
same,TGI,M14 melanoma,> 100 µM
same,TGI,MALME-3M melanoma,> 100 µM
same,TGI,MCF7 breast,46.6 µM
same,TGI,MDA-MB-231 breast,> 100 µM
same,TGI,MDA-MB-435,> 100 µM
same,TGI,MDA-N,> 100 µM
same,TGI,MOLT-4 leukemia,6.41 µM
same,TGI,NCI-H23 lung,> 100 µM
same,TGI,NCI-H460 lung,30.8 µM
same,TGI,NCI-H522 lung,> 100 µM
same,TGI,NCI/ADR-RES ovarian,> 100 µM
same,TGI,OVCAR-3 ovarian,> 100 µM
same,TGI,OVCAR-4 ovarian,96.5 µM
same,TGI,OVCAR-5 ovarian,83.8 µM
same,TGI,OVCAR-8 ovarian,> 100 µM
same,TGI,PC-3 prostate,> 100 µM
same,TGI,RXF 393 renal,48.8 µM
same,TGI,SF-268 CNS,> 100 µM
same,TGI,SF-295 CNS,> 100 µM
same,TGI,SK-MEL-2 melanoma,48.7 µM
same,TGI,SK-MEL-28 melanoma,> 100 µM
same,TGI,SK-OV-3 ovarian,> 100 µM
same,TGI,SN12C renal,> 100 µM
same,TGI,SNB-19 CNS,> 100 µM
same,TGI,SNB-75 CNS,38.1 µM
same,TGI,SR leukemia,36.8 µM
same,TGI,SW-620 colon,> 100 µM
same,TGI,T-47D breast,80.1 µM
same,TGI,TK-10 renal,47.8 µM
same,TGI,U251 CNS,> 100 µM
same,TGI,UACC-257 melanoma,46.5 µM
same,TGI,UACC-62 melanoma,> 100 µM
same,TGI,UO-31 renal,37.3 µM
